# Measurements taken from patent publication US20060264493A1, “Tetracyclic pyrazole derivatives as kinase inhibitors, process for their preparation and pharmaceutical compositions comprising them” (priority 2003, published 2006).
row,melting point [°C],SMILES
1,> 260,Cl.O=C(O)c1n[nH]c2c1CCc1c-2[nH]c2ccccc12
2,> 260,"O=[N+]([O-])c1ccc2[nH]c3c(c2c1)CCc1c[nH]nc1-3 [Example 1, 7-Nitro-2,4,5,10-tetrahydropyrazolo[3,4-a]carbazole]"
3,> 260,"O=C(O)c1ccc2[nH]c3c(c2c1)CCc1c[nH]nc1-3 [Example 2, 2,4,5,10-Tetrahydropyrazolo[3,4-a]carbazole-7-carboxylic acid]"
4,> 260,"O=C(O)c1cccc2[nH]c3c(c12)CCc1c[nH]nc1-3 [Example 3, 2,4,5,10-Tetrahydropyrazolo[3,4-a]carbazole-6-carboxylic acid]"
5,> 260,"O=C(O)c1ccc2c3c([nH]c2c1)-c1n[nH]cc1CC3 [Example 4, 2,4,5,10-Tetrahydropyrazolo[3,4-a]carbazole-8-carboxylic acid]"
6,186 to 190,"CC(C)CNC(=O)c1ccc2[nH]c3c(c2c1)CCc1cn[nH]c1-3 [Example 9, N-isobutyl-1,4,5,10-tetrahydropyrazolo[3,4-a]carbazole-7-carboxamide]"
7,214 to 216,"CCOC(=O)c1ccc2[nH]c3c(c2c1)CCc1cn[nH]c1-3 [Example 11, Ethyl 1,4,5,10-tetrahydropyrazolo[3,4-a]carbazole-7-carboxylate]"
8,240 to 243,"COC(=O)c1ccc2c3c([nH]c2c1)-c1[nH]ncc1CC3 [Example 12, Methyl 1,4,5,10-tetrahydropyrazolo[3,4-a]carbazole-8-carboxylate]"

# More lines, now with the values behind:
row,SMILES,melting point [°C]
1,Cl.Nc1ccc2[nH]c3c(c2c1)CCc1cn[nH]c1-3,237 to 241
2,"CCOC(=O)c1[nH]nc2c1CCc1c-2[nH]c2ccccc12 [Example 5, Ethyl 2,4,5,10-tetrahydropyrazolo[3,4-a]carbazole-3-carboxylate]",224 to 226
3,"CC(C)CC(=O)Nc1ccc2[nH]c3c(c2c1)CCc1cn[nH]c1-3 [Example 7, 3-Methyl-N-(1,4,5,10-tetrahydropyrazolo[3,4-a]carbazol-7-yl)butanamide]",182 to 185
4,"O=C(Nc1ccc2[nH]c3c(c2c1)CCc1cn[nH]c1-3)c1cccs1 [Example 8, N-(1,4,5,10-tetrahydropyrazolo[3,4-a]carbazol-7-yl) thiophene-2-carboxamide]",176 to 180
5,"CN1CCN(C(=O)c2ccc3[nH]c4c(c3c2)CCc2cn[nH]c2-4)CC1 [Example 10, 7-[(4-Methylpiperazin-1-yl)carbonyl]-1,4,5,10-tetrahydropyrazolo[3,4-a]carbazole]",198 to 205
